Assay results reported in ChEMBL document CHEMBL1157288, “Isolation and structure assignment of an iminotetrasaccharide from a cultured filamentous cyanobacterium Anabaena sp” (J Nat Prod, 2006).

System: Escherichia coli
Test: Inhibition of Escherichia coli beta-glucuronidase at 560 uM

CO[C@@H]1[C@@H](O)[C@@H](O[C@@H]2[C@@H]([C@H](C)O)NC[C@@H]2O)O[C@H](CO)[C@H]1O[C@H]1OC[C@H](OC(C)=O)[C@H](OC(C)=O)[C@H]1O[C@H]1O[C@H](C(=O)O)[C@@H](O)[C@H](O)[C@H]1O
inhibition: 50%
